Measurements published in patent US20090170808A1, “ORAL AGENT FOR IMPROVING AND PROTECTING THE FUNCTION OF JOINT COMPRISING HYALURONIC ACID-PHOSPHOLIPID COMPLEXES” (priority 2005, published 2009).
Marks after values point to notes of the source that are not given here.

Legend:
[1] = system: papain-induced OA model in rabbit; assay: GAG content in knee joint cartilage, papain-induced OA model in rabbit (azure A method); assay type: in vivo; parameters: unit not given here; settings: n = 6, x ± s
Description: (§1) 30 rabbits were randomly divided into five groups, i.e., normal control group; normal saline (NS) injection group; hyaluronic acid (HA) oral administration group; hyaluronic acid (HA) injection group; and hyaluronic acid-phospholipid complex (HA-PL, the complex of Preparation Example 2) oral administration group.
(§2) Using the papain-induced OA model in rabbit, the latter four groups of rabbits received injection of 0.1 ml of a papain solution (1.8 mg papain and 50 mg cysteine hydrochloride in 1 ml normal saline, sterile filtered through a 0.22 μm filter membrane) into the right knee articular cavity. A second injection was performed 3 days later.
Starting on Day 7 post-modeling, the rabbits were dosed. […] For oral administration, the respective agent was given intragastrically every day, at a dosage 40 mg/kg body weight, calculated as hyaluronic acid, in a volume of 1 ml/100 g body weight, for 2 weeks.
(§3) After completion of the administration, synovial fluid was aspirated, and the rabbits were sacrificed. […] The total amount of GAG in the cartilage was determined by the azure A method, and the level of HA in the synovial fluid was determined using an HA RIA kit.
The content of GAG in samples from each group was expressed as the amount contained in every 1 mg wet weight of the cartilage ( x±s), and was analyzed by t-test for significance test.

[2] = system: papain-induced OA model in rabbit; assay: HA content in knee joint synovial fluid, papain-induced OA model in rabbit (HA RIA kit); assay type: in vivo; settings: n = 6, x ± s
Description: as §1, §2
Starting on Day 7 post-modeling, the rabbits were dosed. For administration by injection into joint cavity, a injection volume of 0.3 ml, and a hyaluronic acid concentration of 10 mg/ml were used, once every five days for a total of 3 injections during the test. For oral administration, the respective agent was given intragastrically every day, at a dosage 40 mg/kg body weight, calculated as hyaluronic acid, in a volume of 1 ml/100 g body weight, for 2 weeks.
as §3

[3] = injection into joint cavity, 0.3 ml of 10 mg/ml, once every five days, 3 injections
[4] = oral (intragastric) daily, 40 mg/kg calculated as hyaluronic acid, 2 weeks

hyaluronic acid [HA]
GAG Content in knee joint cartilages [1, 3]: 29.9 ± 4.4^1),2) ng · ml^−1
GAG Content in knee joint cartilages [1, 4]: 23.3 ± 4.2
HA content in knee joint synovial fluid [2, 3]: 4.64 ± 0.51^1) mg · ml^−1
HA content in knee joint synovial fluid [2, 4]: 4.65 ± 0.54^1) mg · ml^−1
